In publication PMC9316000, “Preclinical Drug Pharmacokinetic, Tissue Distribution and Excretion Profiles of the Novel Limonin Derivate HY-071085 as an Anti-Inflammatory and Analgesic Candidate in Rats and Beagle Dogs” (Pharmaceuticals, 2022):
Entries after “also recorded” stand apart in the source; their conditions may differ. Where two headings read alike, the source gives them in different places.

Tests used:
[1] = parameters: method as in earlier work; details: cited from earlier work
[2] = parameters: method as in earlier work; details: Temp 25℃; cited from earlier work
[3] = Plasma protein binding, dog plasma; assay type: in vitro ADME; details: read-out: plasma protein binding rate (converted)
Method: The PPB rate in dogs was about 40% at different concentrations in the concentration range (50–400 ng/mL), and in rats it was about 75%. The PPB rate in human plasma varied greatly at different concentrations, ranging from 100% at a low drug concentration to 58% at a high drug concentration, as shown in Table 4.

[4] = Pharmacokinetics after single-dose intragastric administration in rats; assay type: in vivo, Sprague Dawley rats; details: for bioavailability / MRT / AUC / AUC(0-inf) / CL/F / Tmax / Cmax / half-life / Vd/F: rat, plasma; for bioavailability: 3.25 mg/kg intragastric vs intravenous, from AUCs, read-out: absolute oral bioavailability; for AUC: read-out: AUC0-tn; for Vd/F: read-out: Vss/F
Method: Blood samples were collected from the fundus venous plexus at various times within 8 h after administration in order to analyze the concentration of HY-071085 in plasma.
The profiles of the mean plasma concentration of HY-071085 versus time after a single dose in rats are presented in Figure 2 and Figure 3, and the PK parameters are listed in Table 1. […] At the three doses, the AUCtn ratios of the female rats and male rats were 3.5, 3.9 and 2.4, respectively. The AUCtn ratio among male rats was 1:5.16:41.06, and among female rats was 1:5.71:28.20.
In vivo PK profiling in the rats: Sprague Dawley rats (approximately 177–221 g in weight) were purchased from Shanghai Xipur-Bikai Experimental Animal Co., Ltd. (Shanghai, China). Before the experiment, several rats were randomly divided into several groups, half males and half females in each group, fasting but free to drink water for 12 h. The dosage of the rats was dependent on the drug pharmacology: the HY-071085 active pharmaceutical ingredients were administered with a dosage volume of 0.25 mL/100 g body weight. The whole-blood samples were centrifuged at 8000 rpm for 5 min, and the plasma samples were separated and stored at –80 °C until the analysis.
According to the obtained plasma concentration time data, the pharmacokinetic parameters were calculated using Phoenix WinNonlin 8.1 software. The pharmacokinetic parameters—i.e., the area under the curve (AUC), mean residence time (MRT), clearance rate (Cl/F) and steady-state apparent distribution volume (Vss/F)—were calculated by the method of moments, which was estimated according to the following formulae: AUCtn=∑Ci+Ci−1ti−ti−1/2 AUC∞=AUCtn+Cm/λ AUMCtn=∑tiCi+ti−1Ci−1ti−ti−1/2 AUMC∞=AUMCtn+Ctntn/λ+1/λ^2 MRT=AUMC∞/AUC∞ Cl/F=Dose/AUC Vss/F=Cl∗MRT where Ctn is the plasma concentration of tn at the last point after administration, and the elimination rate constant was obtained by ln(concentration) time linear regression.
Due to the drug having significant individual differences in rats, it could not be uniformly fitted with a PK atrioventricular model; as such, the pharmacokinetic parameters analyzed in this study were calculated using a non-atrioventricular model. The pharmacokinetic parameters are defined as follows: Cmax is the maximum blood concentration after administration and absorption, Tmax is the time required to reach Cmax, t1/2 is the time required to eliminate half of the plasma drug concentration after the drug distribution in the body reaches equilibrium, Cl/F is the apparent clearance rate, AUC0-tn is the area under the blood concentration time curve within the dosing interval, AUC0-∞ is the area under the plasma concentration time curve from 0 to infinity, MRT is the average time that all drug molecules stay in the body, and Vss/F is the steady-state apparent distribution volume, which is the product of the clearance rate and average residence time.

[5] = Tissue distribution in rats; assay type: in vivo; details: S-IG 13 mg/kg
Method: The male and female rats were euthanized by femoral artery bleeding under anesthesia after the single-dose intragastric administration of HY-071085 (13 mg/kg) for 10 min, 45 min and 4 h, and the tissues were separated for the analysis of the concentration of HY-071085 in the homogenate.
Tissue distribution in rats: Rats were randomly allocated into three groups (10 rats/group) for the tissue distribution studies. These rats were sacrificed at 10 min, 45 min and 4 h after orally administering HY-071085. Fourteen organs—the heart, liver, spleen, lung, kidney, stomach, gut, muscle, fat, skin, brain, ovary (female), womb (female) and testis (male)—were removed, washed in normal saline, and dried with filter papers immediately. The organs were accurately weighed and individually homogenized with an appropriate amount of deionized water. The tissue homogenate was stored at –80 °C until analysis.

[6] = Sprague Dawley, po, female rats, S-IG 3.25 mg/kg
[7] = Sprague Dawley, po, female rats, S-IG 6.5 mg/kg
[8] = Sprague Dawley, po, female rats, S-IG 13 mg/kg
[9] = Sprague Dawley, po, male rats, S-IG 3.25 mg/kg
[10] = Sprague Dawley, po, male rats, S-IG 6.5 mg/kg
[11] = Sprague Dawley, po, male rats, S-IG 13 mg/kg
[12] = Sprague-Dawley, po, female rats, S-IG 3.25 mg/kg
[13] = Sprague-Dawley, po, female rats, S-IG 6.5 mg/kg
[14] = Sprague-Dawley, po, female rats, S-IG 13 mg/kg
[15] = Sprague-Dawley, po, male rats, S-IG 3.25 mg/kg
[16] = Sprague-Dawley, po, male rats, S-IG 6.5 mg/kg
[17] = Sprague-Dawley, po, male rats, S-IG 13 mg/kg

Q: Which pKa [1] does the source give for `CC1(C)OC2CC(=O)OCC23C1C/C(=N\OCCN1CCOCC1)C1(C)C3CC[C@@]2(C)[C@H](c3ccoc3)OC(=O)C3OC312` (stereo partly drawn) [HY-071085, (12S,12aS,E)-12-(furan-3-yl)-6,6,8a,12a-tetramethyl-8-((2-morpholinoethoxy)imino)dodecahydro-1H,3H-oxireno [2,3-d]pyrano [4’,3’:3,3a]isobenzofuro [5,4-f]isochromene-3,10(9aH)-dione] here?
A: 6.11

Q: What about the Intrinsic solubility [2] of the same molecule?
A: 4500 µg/mL

Q: And the fraction unbound at 50 ng/mL ([3]; 50 ng/mL, mean)?
A: 0.622

Q: What about the fraction unbound at 100 ng/mL ([3]; 100 ng/mL, mean) of the same molecule?
A: 0.671

Q: What about the fraction unbound at 200 ng/mL ([3]; 200 ng/mL, mean) of the same molecule?
A: 0.578

Q: What about the fraction unbound at 400 ng/mL ([3]; 400 ng/mL, mean) of the same molecule?
A: 0.545

Q: What about the fraction unbound ([3]; dog, dogs, concentration range 50–400 ng/mL) of the same molecule?
A: ~0.6

Q: What about the “AUCtn ratio of female rats and male rats” value ([4]; S-IG 3.25 mg/kg) of the same molecule?
A: 3.5

Q: And the “AUCtn ratio of female rats and male rats” value ([4]; S-IG 6.5 mg/kg)?
A: 3.9

Q: And the “AUCtn ratio of female rats and male rats” value ([4]; S-IG 13 mg/kg)?
A: 2.4

Q: And the bioavailability ([4]; Sprague Dawley, oral, male rats)?
A: 2.83%

Q: And the bioavailability ([4]; Sprague Dawley, po, female rats)?
A: 10.8%

Q: And the MRT [4, 6]?
A: 4.06 ± 0.82 h

Q: And the AUC [4, 6]?
A: 73.7 ± 25.3 ng·h/mL

Q: What about the AUC(0-inf) [4, 7] of the same molecule?
A: 429 ± 204 ng·h/mL

Q: What about the CL/F [4, 7] of the same molecule?
A: 302 mL/min/kg

Q: What about the MRT [4, 7] of the same molecule?
A: 2.57 ± 0.64 h

Q: What about the AUC [4, 7] of the same molecule?
A: 421 ± 205 ng·h/mL

Q: And the MRT [4, 8]?
A: 2.29 ± 0.92 h

Q: What about the Tmax [4, 8] of the same molecule?
A: 0.95 ± 0.51 h

Q: What about the AUC [4, 8] of the same molecule?
A: 2080 ± 407 ng·h/mL

Q: What about the bioavailability ([4]; Sprague Dawley, po, male rats) of the same molecule?
A: 2.8%

Q: What about the MRT [4, 9] of the same molecule?
A: 3.48 ± 1.98 h

Q: And the AUC [4, 9]?
A: 20.8 ± 3.01 ng·h/mL

Q: What about the AUC(0-inf) [4, 10] of the same molecule?
A: 125 ± 72.3 ng·h/mL

Q: What about the CL/F [4, 10] of the same molecule?
A: 1180 mL/min/kg

Q: And the MRT [4, 10]?
A: 2.89 ± 1.87 h

Q: And the AUC [4, 10]?
A: 108 ± 54.2 ng·h/mL

Q: And the MRT [4, 11]?
A: 1.94 ± 0.39 h

Q: What about the AUC [4, 11] of the same molecule?
A: 855 ± 290 ng·h/mL

Q: And the Cmax [4, 12]?
A: 20.4 ± 9.08 ng/mL

Q: And the Tmax [4, 12]?
A: 0.7 ± 0.73 h

Q: And the half-life [4, 12]?
A: 2.16 ± 1.13 h

Q: What about the Cmax [4, 13] of the same molecule?
A: 145 ± 64.5 ng/mL

Q: And the Tmax [4, 13]?
A: 0.9 ± 0.68 h

Q: What about the half-life [4, 13] of the same molecule?
A: 1.3 ± 0.36 h

Q: And the Vd/F [4, 13]?
A: 36.3 ± 23.2 L/kg

Q: And the Cmax [4, 14]?
A: 761 ± 322 ng/mL

Q: And the half-life [4, 14]?
A: 0.9 ± 0.42 h

Q: What about the Cmax [4, 15] of the same molecule?
A: 11.3 ± 4.54 ng/mL

Q: And the Tmax [4, 15]?
A: 0.22 ± 0.04 h

Q: What about the half-life [4, 15] of the same molecule?
A: 2.35 ± 1.27 h

Q: And the Cmax [4, 16]?
A: 107 ± 139 ng/mL

Q: And the Tmax [4, 16]?
A: 0.45 ± 0.59 h

Q: What about the half-life [4, 16] of the same molecule?
A: 1.98 ± 1.04 h

Q: What about the Vd/F [4, 16] of the same molecule?
A: 172 ± 70.3 L/kg

Q: What about the Cmax [4, 17] of the same molecule?
A: 381 ± 152 ng/mL

Q: What about the Tmax [4, 17] of the same molecule?
A: 0.85 ± 0.45 h

Q: And the half-life [4, 17]?
A: 1.21 ± 0.31 h

Q: And the “drug exposure of female rats relative to male rats” value ([4]; single-dose intragastric administration)?
A: about three times

Q: What about the “concentration in the brain” value [5] of the same molecule?
A: extremely low

Q: What about the tissue distribution ([5]; 10 min, 45 min and 4 h) of the same molecule?
A: mainly distributed in the gastric, intestine, liver, spleen, lung and kidney tissues; also recorded: mainly distributed in most of the tissues except the brain
